Data published in patent publication US20150126530A1, “Novel Substituted Imidazopyrimidines as Gpbar1 Receptor Modulators” (Torrent Pharmaceuticals Limited., priority 2011, published 2015).

Assays:
[1] = biological target: T1, human TGR5 (Homo sapiens, UniProt Q8TDU6); test: cAMP Responsive Element (CRE)-Reporter Assay; type: cell-based; conditions: luciferase activity relative to vehicle control, five hours, CHO cells transfected with human TGR5 and CRE-luciferase
T1 construct: host or cells: CHO cells (ATCC)
T1 sequence (Q8TDU6 1-330): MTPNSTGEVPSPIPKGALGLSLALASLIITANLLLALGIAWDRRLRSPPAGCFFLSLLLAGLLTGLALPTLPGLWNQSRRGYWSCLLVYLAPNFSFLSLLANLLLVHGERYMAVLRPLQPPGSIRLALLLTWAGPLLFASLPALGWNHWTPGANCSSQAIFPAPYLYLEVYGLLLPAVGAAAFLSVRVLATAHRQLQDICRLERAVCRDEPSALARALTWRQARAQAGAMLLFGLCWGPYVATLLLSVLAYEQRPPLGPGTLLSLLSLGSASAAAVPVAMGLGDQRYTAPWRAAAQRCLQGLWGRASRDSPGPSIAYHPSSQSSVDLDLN
Description: (A) cAMP Responsive Element (CRE)-Reporter Assay:
CHO cells (ATCC) were transfected with human TGR5 (oriGene) and CRE-luciferase reporter vector. Transfected cells were treated with vehicle control or test compounds (Conc 10 μM) for five hours and then lysed. Cell lysates were monitored for luciferase acivity. Increase in luciferase activity is considered as a result of TGR5 activation. Results were expressed as fold induction as compared to vehicle control.
Results are summarized in Table 2 where, + indicates 1.5-2 fold while ++, +++, ++++ indicate 2-3 fold, 3-4 fold, and >4 fold induction respectively relative to vehicle control when tested at 10 μM concentration.

[2] = biological target: T1, human TGR5; test: cAMP Measurement Assay (Alphascreen); type: cell-based; conditions: cAMP levels, CHO cells transfected with human TGR5, one hour
Description: (B) cAMP Measurement Assay:
CHO cells (ATCC) were transfected with human TGR5 vector (oriGene). Transfected cells were treated with vehicle control or test compounds for one hour and then lysed. Levels of cAMP were measured in cell lysates employing Alphascreen cAMP assay kit (Perkin Elmer) and results were expressed EC50 values which are summarized in Table 3.

[3] = system: Human enteroendocrine cell-line (NCI-H716); test: Measurement of Glucagon Like Peptide-1 (GLP-1) secretion; type: cell-based; conditions: NCI-H716 cells, one hour, with respect to vehicle control
Description: (C) Measurement of Glucagon Like Peptide-1 (GLP-1):
Human enteroendocrine cell-line (NCI-H716) were incubated with vehicle or test compounds for one hour. At the end of incubation period, levels of secreted GLP-1 in culture medium were measured by GLP-1 ELISA kit (Millipore). Results are summarized as fold increase in GLP secretion with respect to vehicle control in Table 4.

[4] = system: Diabetic Hamster; test: Single dose efficacy on glucose tolerance (OGTT) in diabetic hamster; type: in vivo; conditions: Mesocricetus auratus, read-out: Decrease in AUC of glucose % change w.r.t. vehicle control group
Description: i) Evaluation of Single Dose Efficacy of Test Compounds on Glucose Tolerance:
Thus efficacy can be assessed through the effect of test compounds on lowering of plasma glucose during OGTT through stimulating glucose stimulated insulin secretion.
The potential of test compounds in lowering of Plasma Glucose was evaluated in Oral glucose tolerance test (OGTT) in Diabetic Hamster Model, where diabetes has been induced by administration of low dose of Streptozotocin (STZ) to the High fat diet (HFD) fed glucose intolerant animals. The diabetic hamsters show impaired glucose stimulated insulin secretion and higher plasma glucose excursions than the normal animals, which remains elevated beyond 2 hrs post glucose load. Thus the animal model can be used for evaluating the potential of test compounds to lower plasma glucose through stimulating glucose stimulated insulin secretion. On the day of study post 6 hrs of fasting, test compounds or vehicle was administered orally at dose volume of 2 ml/kg to the hamsters of the respective treatment groups. Subsequent to dosing, a pre-glucose load blood sample was taken. A glucose load of 40% solution at 5 ml/Kg dose volume was administered orally. Blood samples through retroorbital plexus were taken at 15, 30 60 & 120 min. post glucose load and plasma was separated for glucose measurement. Post glucose load percentage change in plasma glucose and AUC of % change glucose by the treatment was assessed.

[5] = system: Diabetic Hamster; test: Efficacy study on repeated dosing in diabetic hamster; type: in vivo; conditions: for HOMA-IR: from fasting glucose and insulin
Description: (§1) ii) Evaluation of Efficacy of Test Compounds on Repeated Dosing in Diabetic Hamster and DIO Mice. […]
a) Efficacy Study in Diabetic Hamster
Diabetic hamsters were randomized to two treatment groups viz. vehicle treated and test compound treated group. Then the animals were treated with compound 7 of present invention or vehicle for 2 weeks to assess the efficacy potential of the compound. Effect of treatment on glucose excursion and insulin secretion during OGTT, change in body weight & fasting and random plasma triglycerides (TG) was evaluated during the treatment period. The effect of repeated administration of compound on energy expenditure was evaluated through monitoring oxygen consumption (VO2) over 21 hrs period by indirect calorimetry (Oxymax System, Columbus Instruments). HOMA-IR an index of insulin resistance was estimated using fasting glucose and insulin levels estimated during OGTT.
Similarly, the study was conducted using compound no 50 of the present invention for the duration of four week period in Diabetic hamsters.

[6] = system: DIO mice; test: Efficacy study on repeated dosing in DIO mice; type: in vivo; conditions: od; for % Change in body wt from basal: repeated administration
Description: as §1
b) Efficacy Study in DIO Mice
Male C57B1/6J mice were made insulin resistant by feeding on High fat diet (45.5% Kcal from Fat, Research Diet) from the age of 6-8 week onwards. After being on High fat diet for 6-8 weeks the animals with similar body weights & fasting plasma glucose were further randomized into treatment groups. Then the animals were treated with compounds 7 to assess the efficacy potential during treatment duration. Effect of treatment on glucose excursion and insulin secretion during OGTT, Fasting Plasma Glucose & Insulin, lipid profile and body weight were evaluated. The compound for enhancing energy expenditure was evaluated by monitoring oxygen consumption (VO2) and carbon dioxide release (VCO2) over 24 hrs period by indirect calorimetry (Oxymax System, Columbus Instruments).
Similarly, the study was conducted in DIO mice with compound no 50 of the present invention.

[7] = 20 mg/kg, po, bid, 2 weeks, listed as compound no. 7, 20 mg/kg
[8] = compound no. 7 repeated dosing, 2 weeks
[9] = 1.5 mg/kg, listed as compound no. 7, 1.5 mg/kg
[10] = 6 mg/kg, i.p. OD, four week, listed as compound no. 50, 6 mg/kg
[11] = compound no. 50 repeated dosing, four week
[12] = 9 mg/kg, listed as compound no. 50, 9 mg/kg

## CN(C(=O)c1c(-c2ccc(F)cc2)nc2ncccn12)c1ccc(Cl)cc1 [Compound no. 7, N-(4-chlorophenyl)-2-(4-fluorophenyl)-N-methylimidazo[1,2-a]pyrimidine-3-carboxamide]
[1]
  fold induction at 10 µM: > 4
[2]
  EC50: 90 nM
[3]
  Fold increase in GLP Release: 3.72 fold
[4]; single oral dose 38 mg/kg
  inhibition in vivo at 38 mg/kg: 39%
[5]; 20 mg/kg, po, bid, 2 weeks
  % Change in body wt fro basal: −5.2 ± 1.6%
  AUC_Insulin % change during OGTT: 2280.6 ± 428.8
  AUC_glucose % change during OGTT: 12714.43 ± 912
  Fasting plasma TG: 188.35 ± 3.7 mg/dL
  Random plasma T: 344.38 ± 90.3 mg/dL
  HOMA-IR: 15.6 ± 2.1
[5]; [7]
  HOMA-IR: decrease in HOMA-IR
  % Change in body wt fro basal: reduced body weight
  AUC_Insulin % change during OGTT: improved insulin secretion
  AUC_glucose % change during OGTT: reduced glucose excursion
  Fasting plasma TG: decreased plasma TG levels
[5]; 20 mg/kg, po, bid, 2 weeks, indirect calorimetry over 21 hrs
  Oxygen consumption: 22.551 ± 0.638 mL/min/kg
[5]; 20 mg/kg, po, bid, 2 weeks, indirect calorimetry over 21 hrs, listed as compound no. 7, 20 mg/kg
  Oxygen consumption: increased energy expenditure
[5]; [8]
  decrease in LDL: 14%
  decrease in non HDL: 24%
  improvement in HDL:LDL ratio: 24%
  increase in HDL: 7%
[6]; 1.5 mg/kg
  AUC_Insulin % change during OGTT: 5431.0 ± 920.9
  AUC_glucose % change during OGTT: 4526.7 ± 876.8
  Fasting plasma TG: 40.4 ± 2.3 mg/dL
  HOMA-IR: 4.7 ± 1.68
  % Change in body wt from basal: −3.19 ± 1.32%
[6]; 1.5 mg/kg, indirect calorimetry over 24 hrs
  Oxygen consumption: 51.938 ± 1.768 mL/min/kg
[6]; 1.5 mg/kg, indirect calorimetry over 24 hrs, listed as compound no. 7, 1.5 mg/kg
  Oxygen consumption: increased energy expenditure
[6]; [9]
  AUC_Insulin % change during OGTT: improved insulin secretion
  AUC_glucose % change during OGTT: reduced glucose excursion
  Fasting plasma TG: decreased plasma TG levels
  HOMA-IR: decrease in HOMA-IR
  % Change in body wt from basal: reduced body weight

## CN(C(=O)c1c(Oc2ccc(F)cc2)nc2ncccn12)c1ccc(Cl)cc1 [Compound no. 50, N-(4-chlorophenyl)-2-(4-fluorophenoxy)-N-methylimidazo[1,2-a]pyrimidine-3-carboxamide]
[1]
  fold induction at 10 µM: > 4
[2]
  EC50: 354 nM
[3]
  Fold increase in GLP Release: 1.74 fold
[4]; single oral dose 40 mg/kg
  inhibition in vivo at 40 mg/kg: 10%
[5]; 6 mg/kg, i.p. OD, four week
  % Change in body wt from basal: −1.56%
  AUC_glucose % change during OGTT: 6225.7
  Fasting plasma TG: 97.8 mg/dL
  Oxygen consumption: 25.0092 mL/min/kg
[5]; [10]
  % Change in body wt from basal: reduced body weight
  AUC_glucose % change during OGTT: reduced glucose excursion
  Fasting plasma TG: decreased plasma TG levels
  Oxygen consumption: increased energy expenditure
[5]; [11]
  decrease in LDL: 16%
  decrease in non HDL: 24%
  improvement in HDL:LDL ratio: 16%
[6]; 9 mg/kg
  AUC_Insulin % change during OGTT: 12938.8
  AUC_glucose % change during OGTT: 7763.5
  HOMA-IR: 1.96
  Oxygen consumption: 46.125 mL/min/kg
  % Change in body wt from basal: −3.29%
[6]; [12]
  AUC_Insulin % change during OGTT: improved insulin secretion
  AUC_glucose % change during OGTT: reduced glucose excursion
  HOMA-IR: decrease in HOMA-IR
  Oxygen consumption: increased energy expenditure
  % Change in body wt from basal: reduced body weight
